# According to patent publication US8029793B2, “Methods for inhibiting cell proliferation” (Chugai Seiyaku Kabushiki Kaisha, priority 2000, dated 2011):
# How the values were obtained:
# [1] = test system: KTA-2 cell line; test: PTHrP stimulation test (3H-TdR incorporation); assay type: cell-based, human; settings: PTHrP(34-53) 0, 1, 10, 100 ng/mL, trypsin treatment at 24 hours and at 48 hours after addition
# Protocol: (§1) Briefly, anaplastic thyroid cell lines TTA-1 (hatched bars), TTA-2 (solid bars), and KTA-2 (unfilled bars) were seeded at 1×10^4 cells per well in a 96-well plate. Cells were incubated for two days in complete medium and then shifted to serum-free medium for day 3. Cells were treated with PTHrP (34-53) at 0, 1, 10, and 100 ng/mL and treated with trypsin 24 (top panel) and 48 (bottom panel) hours later. Cells were labeled with ^3H-TdR for 6 hours (0.25 μCi/well) and incorporation of label was measured by liquid scintillation counting. Measurements were performed in triplicate and average results are presented.
# (§2) After treating TTA-1, TTA-2, and KTA-2 with trypsin, the number of viable cells not stained with trypan blue was counted with a hemocytometer. Subsequently, 1×10^4 cells were inoculated on a 96-well multi-plate (Falcon), and then cultured in a CO2 incubator at 37° C. for 2 days. On day 2 after culturing, the culture solution was replaced by a serum-free medium, and then culturing was performed for 1 day. PTHrP(34-53) (Calbiochem) at concentrations of 0 (PTHrP-free), 1, 10 and 100 ng/mL were added, followed by treatment with trypsin 24 and 48 hours later.
# (§3) The cells were labeled with ^3H-TdR for 6 hours (0.25 μCi/well), collected, and then incorporation of ^3H-TdR was measured using a liquid scintillation counter. […]
# [2] = test system: TTA-1 cell line; test: PTHrP stimulation test (3H-TdR incorporation); assay type: cell-based, human; settings: PTHrP(34-53) 0, 1, 10, 100 ng/mL, trypsin treatment at 24 hours and at 48 hours after addition
# Protocol: as §1, §2, §3
substance,measurement,setting,value
PTHrP(34-53): peptide fragment consisting the sequence of amino acids 34 to 53 of parathyroid hormone related peptide (Calbiochem) (AEIRATSEVSPNSKPSPNTK; listed as Homo sapiens),cell proliferation (incorporation of 3H-TdR),[1],proliferate depending on the concentration of PTHrP
same,cell proliferation (incorporation of 3H-TdR),[2],proliferate depending on the concentration of PTHrP
